Data published in EP3262942A1, “SELENODIARYLS FOR USE AS MICROBICIDE OR AS MEDICINE” (Evonik Degussa GmbH, priority 2016, dated 2018).

Legend:
Lepidium sativum = assay: Crop plant growth test, seeds on filter discs, 4 days, visual evaluation; type: in vivo
Procedure: (§1) Testsubstanzen und Kontrollen werden auf Filterrondellen in Mikrotiterplatten (48 well) vorgelegt und das verwendete Lösungsmittel (DMSO) über Lyophilisation entfernt. Anschließend werden ca. 12 Samen pro Vertiefung (Setaria italical Lepidium sativum) zugeben, mit 200 µl sterilem Leitungswasser pro Vertiefung versetzt, mit einem Deckel versehen und in einer feuchten Kammer für 4 Tage im Pflanzenbrutschrank inkubiert (16h-Licht-8h-Dunkel-Rhythmus). Die Auswertung des Tests erfolgt optisch (+: mind. 75 % Wachstumshemmung im Vergleich zur Kontrolle, -: weniger als 75 % Wachstumshemmung im Vergleich zur Kontrolle.

Setaria italica = assay: as above; type: in vivo
Procedure: as §1

Candida albicans = assay: Growth test in microtiter plates, HA medium, 24 h, visual evaluation; type: cell-based; design: key: +: kein Wachstum im Vergleich zur Wachstumskontrolle; -: Wachstum wie Wachstumskontrolle
Botrytis cinerea = assay: microbe, parasite or virus in culture; type: cell-based; details: for inhibition of growth at 5 µg/mL / inhibition of growth at 10 µg/mL / inhibition of growth at 25 µg/mL / inhibition of growth at 50 µg/mL: Botrytis cinerea, 24 h, read-out: Aktivität gegenüber B. cinerea
Mucor miehei = assay: Growth test in microtiter plates, HA medium, 24 h, visual evaluation; type: cell-based; design: key to Aktivität gegenüber M. miehei: +: kein Wachstum im Vergleich zur Wachstumskontrolle; -: Wachstum wie Wachstumskontrolle
M. grisea H2O = assay: microbe, parasite or virus in culture; type: cell-based, Magnaporthe grisea; details: Pyricularia grisea, H2O, 24 h, read-out: Aktivität gegenüber M. grisea H2O
P. infestans = assay: microbe, parasite or virus in culture; type: cell-based, Phytophthora infestans; details: Phytophthora infestans, 24 h, read-out: Aktivität gegenüber P. infestans
[1] = test system: alle getesteten Pathogene; type: cell-based; details: 5-50 µg/mL
M. grisea CM = assay: microbe, parasite or virus in culture; type: cell-based, Magnaporthe grisea; details: Pyricularia grisea, 24 h, read-out: Aktivität gegenüber M. grisea CM
Paecilomyces variotii = assay: Growth test in microtiter plates, HA medium, 24 h, visual evaluation; type: cell-based; design: key: +: kein Wachstum im Vergleich zur Wachstumskontrolle; -: Wachstum wie Wachstumskontrolle
Penicillium notatum = assay: as above; type: cell-based; design: key: +: kein Wachstum im Vergleich zur Wachstumskontrolle; -: Wachstum wie Wachstumskontrolle

Compound | Aktivität gegenüber Nutzpflanzen: L. sativum (Lepidium sativum; 10µg/R) | Aktivität gegenüber Nutzpflanzen: L. sativum (Lepidium sativum; 20µg/R) | Aktivität gegenüber Nutzpflanzen: L. sativum (Lepidium sativum; 50µg/R) | Aktivität gegenüber Nutzpflanzen: S. italica (Setaria italica; 10µg/R) | Aktivität gegenüber Nutzpflanzen: S. italica (Setaria italica; 20µg/R) | Aktivität gegenüber Nutzpflanzen: S. italica (Setaria italica; 50µg/R) | Aktivität gegenüber C. albicans (Candida albicans; 10µg/mL) | Aktivität gegenüber C. albicans (Candida albicans; 50µg/mL) | inhibition of growth at 5 µg/mL (Botrytis cinerea) | inhibition of growth at 10 µg/mL (Botrytis cinerea) | inhibition of growth at 25 µg/mL (Botrytis cinerea) | inhibition of growth at 50 µg/mL (Botrytis cinerea) | Aktivität gegenüber M. miehei (Mucor miehei; 10µg/mL) | Aktivität gegenüber M. miehei (Mucor miehei; 50µg/mL) | inhibition of growth at 5 µg/mL (M. grisea H2O) | inhibition of growth at 10 µg/mL (M. grisea H2O) | inhibition of growth at 25 µg/mL (M. grisea H2O) | inhibition of growth at 50 µg/mL (M. grisea H2O) | inhibition of growth at 5 µg/mL (P. infestans) | inhibition of growth at 10 µg/mL (P. infestans) | further results
CCc1cc([Se]c2cc(CC)cc(C(C)(C)C)c2O)c(O)c(C(C)(C)C)c1 [Verbindung 15, Bis(3-tert-butyl-5-ethyl-2-hydroxyphenyl)selen] | - (weniger als 75 % Wachstumshemmung im Vergleich zur Kontrolle) | - (weniger als 75 % Wachstumshemmung im Vergleich zur Kontrolle) | - (weniger als 75 % Wachstumshemmung im Vergleich zur Kontrolle) | - (weniger als 75 % Wachstumshemmung im Vergleich zur Kontrolle) | - (weniger als 75 % Wachstumshemmung im Vergleich zur Kontrolle) | - (weniger als 75 % Wachstumshemmung im Vergleich zur Kontrolle) | - | - | 0 to 25% | 0 to 25% | 0 to 25% | 0 to 25% | - | - | 0 to 25% | 0 to 25% | 0 to 25% | 0 to 25% | 0 to 25% | 0 to 25% | inhibition of growth at 25 µg/mL (P. infestans): 0 to 25%; inhibition of growth at 50 µg/mL (P. infestans): 0 to 25%; Aktivität im Wachstums- und Keimungshemmungstest gegen die getesteten Pathogene [1]: weder im Wachstums- noch im Keimungshemmungstest im verwendeten Konzentrationsbereich eine entsprechende Aktivität; inhibition of growth at 5 µg/mL (M. grisea CM): 0 to 25%; inhibition of growth at 10 µg/mL (M. grisea CM): 0 to 25%; inhibition of growth at 25 µg/mL (M. grisea CM): 0 to 25%; inhibition of growth at 50 µg/mL (M. grisea CM): 0 to 25%; Aktivität gegenüber P. variotii (Paecilomyces variotii; 10µg/mL): -; Aktivität gegenüber P. variotii (Paecilomyces variotii; 50µg/mL): -; Aktivität gegenüber P. notatum (Penicillium notatum; 10µg/mL): -; Aktivität gegenüber P. notatum (Penicillium notatum; 50µg/mL): -
CCC(C)(C)c1cc([Se]c2cc(C(C)(C)CC)cc(C(C)(C)CC)c2O)c(O)c(C(C)(C)CC)c1 [Verbindung 16, Bis(3,5-di(1,1-dimethylpropyl)-2-hydroxyphenyl)selen] | - (weniger als 75 % Wachstumshemmung im Vergleich zur Kontrolle) | - (weniger als 75 % Wachstumshemmung im Vergleich zur Kontrolle) | - (weniger als 75 % Wachstumshemmung im Vergleich zur Kontrolle) | - (weniger als 75 % Wachstumshemmung im Vergleich zur Kontrolle) | - (weniger als 75 % Wachstumshemmung im Vergleich zur Kontrolle) | - (weniger als 75 % Wachstumshemmung im Vergleich zur Kontrolle) | - | - | 0 to 25% | 0 to 25% | 0 to 25% | 0 to 25% | - | - | 0 to 25% | 0 to 25% | 0 to 25% | 0 to 25% | 0 to 25% | 0 to 25% | inhibition of growth at 25 µg/mL (P. infestans): 0 to 25%; inhibition of growth at 50 µg/mL (P. infestans): 0 to 25%; Aktivität im Wachstums- und Keimungshemmungstest gegen die getesteten Pathogene [1]: weder im Wachstums- noch im Keimungshemmungstest im verwendeten Konzentrationsbereich eine entsprechende Aktivität; inhibition of growth at 5 µg/mL (M. grisea CM): 0 to 25%; inhibition of growth at 10 µg/mL (M. grisea CM): 0 to 25%; inhibition of growth at 25 µg/mL (M. grisea CM): 0 to 25%; inhibition of growth at 50 µg/mL (M. grisea CM): 0 to 25%; Aktivität gegenüber P. variotii (Paecilomyces variotii; 10µg/mL): -; Aktivität gegenüber P. variotii (Paecilomyces variotii; 50µg/mL): -; Aktivität gegenüber P. notatum (Penicillium notatum; 10µg/mL): -; Aktivität gegenüber P. notatum (Penicillium notatum; 50µg/mL): -
Cc1cc(C(C)C)c(O)c([Se]c2c(C)c(C)cc(C(C)C)c2O)c1C [Verbindung 18, Bis(5,6-dimethyl-2-hydroxy-3-isopropylphenyl)selen] | - (weniger als 75 % Wachstumshemmung im Vergleich zur Kontrolle) | - (weniger als 75 % Wachstumshemmung im Vergleich zur Kontrolle) | - (weniger als 75 % Wachstumshemmung im Vergleich zur Kontrolle) | - (weniger als 75 % Wachstumshemmung im Vergleich zur Kontrolle) | - (weniger als 75 % Wachstumshemmung im Vergleich zur Kontrolle) | - (weniger als 75 % Wachstumshemmung im Vergleich zur Kontrolle) | - | - | 0 to 25% | 0 to 25% | 0 to 25% | 0 to 25% | - | - | 0 to 25% | 0 to 25% | 0 to 25% | 0 to 25% | 0 to 25% | 0 to 25% | inhibition of growth at 25 µg/mL (P. infestans): 0 to 25%; inhibition of growth at 50 µg/mL (P. infestans): 0 to 25%; Aktivität im Wachstums- und Keimungshemmungstest gegen die getesteten Pathogene [1]: weder im Wachstums- noch im Keimungshemmungstest im verwendeten Konzentrationsbereich eine entsprechende Aktivität; inhibition of growth at 5 µg/mL (M. grisea CM): 0 to 25%; inhibition of growth at 10 µg/mL (M. grisea CM): 0 to 25%; inhibition of growth at 25 µg/mL (M. grisea CM): 0 to 25%; inhibition of growth at 50 µg/mL (M. grisea CM): 0 to 25%; Aktivität gegenüber P. variotii (Paecilomyces variotii; 10µg/mL): -; Aktivität gegenüber P. variotii (Paecilomyces variotii; 50µg/mL): -; Aktivität gegenüber P. notatum (Penicillium notatum; 10µg/mL): -; Aktivität gegenüber P. notatum (Penicillium notatum; 50µg/mL): -
Cc1cc([Se]c2cc(C)c(O)c(C)c2)cc(C)c1O [Verbindung 19, Bis(3,5-dimethyl-4-hydroxyphenyl)selen] | - (weniger als 75 % Wachstumshemmung im Vergleich zur Kontrolle) | - (weniger als 75 % Wachstumshemmung im Vergleich zur Kontrolle) | - (weniger als 75 % Wachstumshemmung im Vergleich zur Kontrolle) | + (mind. 75 % Wachstumshemmung im Vergleich zur Kontrolle) | + (mind. 75 % Wachstumshemmung im Vergleich zur Kontrolle) | + (mind. 75 % Wachstumshemmung im Vergleich zur Kontrolle) | - | - | 25 to 50% | > 75% | > 75% | 0 to 25% | + | + | > 75% | > 75% | > 75% | > 75% | 0 to 25% | 50 to 75% | Effekt auf S. italica (Setaria italica; […]): wachstumshemmenden Effekt; mikrobizide Wirksamkeit gegenüber B. cinerea (Botrytis cinerea): mikrobizide Wirksamkeit; inhibition of growth at 25 µg/mL (P. infestans): 50 to 75%; inhibition of growth at 50 µg/mL (P. infestans): 0 to 25%; Aktivität im Wachstums- und Keimungshemmungstest gegen die getesteten Pathogene [1]: deutliche Aktivität gegenüber allen getesteten Pathogenen, mit Ausnahme von C. albicans; inhibition of growth at 5 µg/mL (M. grisea CM): > 75%; inhibition of growth at 10 µg/mL (M. grisea CM): > 75%; inhibition of growth at 25 µg/mL (M. grisea CM): > 75%; inhibition of growth at 50 µg/mL (M. grisea CM): > 75%; Aktivität gegenüber P. variotii (Paecilomyces variotii; 10µg/mL): -; Aktivität gegenüber P. variotii (Paecilomyces variotii; 50µg/mL): -; Aktivität gegenüber P. notatum (Penicillium notatum; 10µg/mL): -; Aktivität gegenüber P. notatum (Penicillium notatum; 50µg/mL): +
